# Experimental data as given in patent publication US8501743B2, “Personal care composition” (Conopco, Inc., priority 2007, dated 2013).
# Legend:
# [1] = cited from earlier work
# [2] = system: Malassezia furfur CBS 7019; test: Formulation bio-efficacy (Malassezia kill) by Vitro-Skin assay; type: cell-based; settings: FIG. 5
# Experimental: Assessment of Formulation Bio-Efficacy (Malassezia Kill) by Vitro-Skin™ Assay Formulation bio-efficacy was assessed using an in vitro substantivity assay which evaluates the effectiveness of actives in shampoo and conditioners using Malassezia furfur CBS 7019 as the organism. Malassezia furfur for the inoculation of artificial skin were initially grown in Pityrosporum Broth, and added to molten agar slurry immediately prior to the inoculation of the Vitro-Skin™ at a final concentration of 1-3×10^5 cells/ml. Vitro-Skin™ was placed onto a Modified Dixon Agar Plate (1 skin per plate), and 0.5 ml of agar slurry inoculum was gently pipetted onto the rough surface of the skin, in a film 1-2 mm deep. After the agar had gelled, the plates were placed in an incubator (32° C.) for 24 h. Following incubation, each piece of Vitro-Skin™ was carefully folded in half (inoculum on the inside) using sterile forceps, and placed a vial containing 10 ml of Butterfield's phosphate buffer (pH 7.2), 0.1% Triton X-100, 0.5% Tween and 0.08% lecithin. The vial was vortexed for 1 min (high setting), and 1 ml of this sample (10°) then added to 9 ml of 0.1% peptone (in water: 10^−1 sample). This sample was then serially diluted to 10^−5 in 0.1% peptone. For immediate controls, 0.1 ml of 10^0-10^−4 dilutions were plated onto Modified Dixon Agar Plates. For 24 h incubated samples, 0.1 ml of 10^0-10^−5 dilutions were plated onto Modified Dixon Agar Plates, and incubated at 32° C. for 4-5 days. The number of colonies on each plate were then counted, and final numbers determined by multiplying by the appropriate dilution.
# [3] = 0.2% active alone in shampoo formula 1
Structure (SMILES),"solubility in ethanol ([1]; ethanol, ambient temperature)",solubility in water ([1]; water),microkill (Malassezia furfur kill) ([2]; 0.1% active alone in shampoo formula 1),"microkill (Malassezia furfur kill) [2, 3]"
"CC(=O)N1CCN(c2ccc(OC[C@@H]3CO[C@@](Cn4ccnc4)(c4ccc(Cl)cc4Cl)O3)cc2)CC1 [ketoconazole, 1-[4-[4-[[(2S,4R)-2-(2,4-dichlorophenyl)-2-(imidazol-1-ylmethyl)-1,3-dioxolan-4-yl]methoxy]phenyl]piperazin-1-yl]ethanone]",soluble,virtually insoluble,relatively ineffective,highly effective
CC1CCC(C(C)C)C(O)C1 (stereo not drawn) [menthol],,,,relatively ineffective
O=C(O)c1ccccc1O [salicylic acid],,,,relatively ineffective
